Here are results for two compounds from publication PMC7356390, “Dehydrozingerone, a Curcumin Analog, as a Potential Anti-Prostate Cancer Inhibitor In Vitro and In Vivo” (Molecules, 2020).

SMILES strings stand for the structures.

The subject of one assay is PLS10 cells. Briefly: WST-1 cell viability assay. The class given is cell-based. The note with it: Rattus norvegicus; 48 h, WST-1 assay, mean ± S.D.; read-out: IC50, cell proliferation of PLS10 cells. The protocol: Figure 2 Cytotoxicity of Cur (a) and DZG (b) on PLS10 cells. Cells were treated with Cur (0–50 μM) or DZG (0–200 µM) and incubated for 48 h. Cell viability was measured by WST-1 assay. Data are represented as mean ± S.D. of three independent experiments. * p < 0.05, ** p < 0.01 and *** p < 0.001 vs. control (one-way ANOVA, Dunnett’s multiple comparisons test, tested groups vs. control group). PLS10 cells (2.0 × 10^3 cells per well) were plated in a 96-well plate for 24 h. Cur and DZG were dissolved in DMSO and diluted to the final concentration in the culture medium. After that, the culture medium containing Cur (0–50 µM) or DZG (0–200 µM) in 0.5% DMSO (vehicle control) were added into the cells. The cells were incubated in 5% CO2 at 37°C for a further 48 h, and cell viability was determined using the WST-1 colorimetric assay (Roche Diagnostics, Mannheim, Germany). In each experiment, determinations were carried out in triplicate.

Assay [1] concerns cyclin D1 expression in PLS10 cells. Briefly: Western blot analysis of cyclin D1 expression. The assay is classed as cell-based, rat. The following applies: 48 h, p < 0.01 vs control. As to the method: Cells were treated with Cur (0–20 μM) and DZG (0–200 μM) for 48 h. Cells were harvested for analysis of the cell cycle distribution by the Guava cycle (a,b), while cyclin D1 expression was determined by Western blot analysis (c,d). The level of protein expression was quantified by IMAGE J software. Data are presented as mean ± S.D. of three independent experiments. * p < 0.05 and ** p < 0.01 vs. control (one-way ANOVA, Dunnett’s multiple comparisons test, tested groups vs. control group). […]
Protein concentration was determined using the Bradford method (Thermo Fisher Scientific, Waltham, MA, USA). […]

In the case of `COc1cc(/C=C/C(=O)CC(=O)/C=C/c2ccc(O)c(OC)c2)ccc1O` [Cur, Curcumin], the IC50 in the assay on PLS10 cells came to 20.3 ± 0.58 µM. Further, the “cyclin D1 expression” value in assay [1] (15 and 20 µM) is “decreased”.
Regarding `COc1cc(/C=C/C(C)=O)ccc1O` [DZG, (E)-4-(4-hydroxy-3-methoxyphenyl)-but-3-en-2-one], the IC50 in the assay with PLS10 cells was 153 ± 11.8 µM. For the same compound, in assay [1] (150 and 200 µM), the “cyclin D1 expression” value is reported as “decreased”.
